The record followed here is PubChem BioAssay (NCI).

Test systems include A549 NSCLC; CAKI-1 renal; HCC-2998 colon; NCI-H226 lung; OVCAR-3 ovarian; SF-539 CNS; SK-MEL-28 melanoma; SK-OV-3 ovarian; SNB-75 CNS; SW-620 colon.
Holding throughout (test): NCI-60 cell line screen, 48 h

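Briefly, cells in 96-well plates were exposed to five compound concentrations for 48 h, and endpoints were estimated by linear interpolation. The concentration for 50% growth inhibition is given as GI50. TGI is the concentration that stops growth completely.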

`CC1=C([Se]CC(OC(=O)CC[Se]c2ccccc2)C(=O)NCCCCCC(=O)OCc2ccccc2)C(=O)c2ccccc2C1=O` (stereo not given): the GI50 was 2.56 µM in the experiment with A549 NSCLC; 2.57 µM in the experiment with CAKI-1 renal; 2.9 µM with HCC-2998 colon; 2.75 µM with NCI-H226 lung; 1.83 µM in the experiment with OVCAR-3 ovarian; 2.36 µM in the experiment with SF-539 CNS. Besides, the GI50 with SK-MEL-28 melanoma is 2.98 µM; with SK-OV-3 ovarian it was 3.95 µM; with SNB-75 CNS it was 1.71 µM; in the experiment with SW-620 colon, 3.28 µM. The TGI in the experiment with A549 NSCLC was found to be 6.72 µM; in the experiment on CAKI-1 renal, 7.72 µM; in the experiment on HCC-2998 colon it was 7.46 µM; in the experiment on NCI-H226 lung, 7.07 µM; in the experiment with OVCAR-3 ovarian it was 4.71 µM; with SF-539 CNS, 6.03 µM. Also, the TGI in the experiment on SK-MEL-28 melanoma turned out to be 7.76 µM; in the experiment with SK-OV-3 ovarian, 7.27 µM; in the experiment on SNB-75 CNS, 6.23 µM; in the experiment on SW-620 colon, 11.6 µM.

Consider `CC(=O)OC[C@H]1O[C@@H](n2ccc(=O)[nH]c2=O)[C@H](OC(C)=O)[C@@H]1OC(C)=O`, for which the GI50 in the experiment on A549 NSCLC, in the experiment on CAKI-1 renal, in the experiment with HCC-2998 colon, in the experiment on NCI-H226 lung, in the experiment on OVCAR-3 ovarian and in the experiment on SF-539 CNS was greater than 100 µM throughout. Further, the GI50 in the experiment on SK-MEL-28 melanoma, with SK-OV-3 ovarian, in the experiment on SNB-75 CNS and in the experiment on SW-620 colon was greater than 100 µM in each case. In addition, the TGI in the experiment on A549 NSCLC, with CAKI-1 renal, in the experiment on HCC-2998 colon, in the experiment on NCI-H226 lung, in the experiment on OVCAR-3 ovarian and in the experiment with SF-539 CNS was greater than 100 µM throughout. Moreover, the TGI with SK-MEL-28 melanoma, in the experiment on SK-OV-3 ovarian, with SNB-75 CNS and in the experiment with SW-620 colon was greater than 100 µM throughout.

With `COc1cc2oc(=O)ccc2cc1C1OC(=O)C2OC21C` (stereo not given), the TGI in the experiment with A549 NSCLC, with CAKI-1 renal, in the experiment on HCC-2998 colon, in the experiment with NCI-H226 lung, in the experiment on OVCAR-3 ovarian and in the experiment with SF-539 CNS was greater than 100 µM in each case. For the same compound, the TGI in the experiment on SK-MEL-28 melanoma, in the experiment with SK-OV-3 ovarian, in the experiment with SNB-75 CNS and in the experiment with SW-620 colon was greater than 100 µM throughout.

In the case of `COc1ccccc1-[n+]1cc(-c2ccc(-c3ccccc3)cc2)n2c1CCCCC2`, the GI50 in the experiment with A549 NSCLC was 0.51 µM; with CAKI-1 renal, 11.5 µM; in the experiment with HCC-2998 colon it was 0.318 µM; with NCI-H226 lung, 0.773 µM; with OVCAR-3 ovarian it was 0.233 µM; in the experiment with SF-539 CNS, 0.348 µM. For the same compound, the GI50 in the experiment on SK-MEL-28 melanoma is 0.384 µM; in the experiment with SK-OV-3 ovarian, 0.368 µM; with SNB-75 CNS it was 0.325 µM; with SW-620 colon, 0.587 µM. Moreover, the TGI is 16.7 µM in the experiment with A549 NSCLC; 33.4 µM in the experiment on CAKI-1 renal; 12.6 µM in the experiment with HCC-2998 colon; 13.4 µM in the experiment on NCI-H226 lung; 12.4 µM in the experiment with OVCAR-3 ovarian; 13.2 µM in the experiment with SF-539 CNS. The TGI in the experiment on SK-MEL-28 melanoma came out at 11.2 µM; in the experiment on SK-OV-3 ovarian, 5.82 µM; with SNB-75 CNS, 13.4 µM; in the experiment on SW-620 colon it was 12.7 µM.

For the compound `Cc1ccc(C(CN(C)C)C(=O)c2ccccc2)cc1` (stereo not given), the GI50 in the experiment with A549 NSCLC is 16.7 µM; with CAKI-1 renal it was 2.64 µM; in the experiment with HCC-2998 colon, 6.62 µM; in the experiment with NCI-H226 lung, 2.97 µM; in the experiment on OVCAR-3 ovarian, 1.86 µM; in the experiment on SF-539 CNS, 3.09 µM. In addition, the GI50 was 2.83 µM in the experiment on SK-MEL-28 melanoma, 14.7 µM in the experiment on SK-OV-3 ovarian, 2.58 µM in the experiment on SNB-75 CNS and 0.894 µM in the experiment on SW-620 colon. The TGI in the experiment with A549 NSCLC is 38 µM; with CAKI-1 renal, 7.97 µM; in the experiment on HCC-2998 colon, 20.2 µM; in the experiment on NCI-H226 lung it was 20.9 µM; in the experiment with OVCAR-3 ovarian it was 3.55 µM; with SF-539 CNS it was 10.7 µM. The TGI with SK-MEL-28 melanoma worked out at 8.37 µM; in the experiment with SK-OV-3 ovarian, 31.3 µM; with SNB-75 CNS, 14.8 µM; with SW-620 colon, 2.71 µM.

On to `Cc1c(N=Nc2ccc([N+](=O)[O-])cc2)nc2scc(-c3ccccc3)n12`, for which the TGI in the experiment on A549 NSCLC, with CAKI-1 renal, in the experiment on HCC-2998 colon, with NCI-H226 lung, in the experiment on OVCAR-3 ovarian and in the experiment on SF-539 CNS was greater than 100 µM each time. In addition, the TGI with SK-MEL-28 melanoma, with SK-OV-3 ovarian, in the experiment with SNB-75 CNS and in the experiment with SW-620 colon was greater than 100 µM each time.

On to `Cc1cccc(C(C)(C)C)c1NC(=O)C(=O)C(C(=O)/C=C\c1ccccc1)C1OC(=O)c2ccccc21` (stereo not given), for which the TGI with A549 NSCLC, in the experiment on CAKI-1 renal, in the experiment with HCC-2998 colon, in the experiment with NCI-H226 lung, with OVCAR-3 ovarian and with SF-539 CNS was greater than 100 µM in each case. Also, the TGI in the experiment with SK-MEL-28 melanoma, in the experiment on SK-OV-3 ovarian, in the experiment with SNB-75 CNS and in the experiment on SW-620 colon was greater than 100 µM each time.

For `O=c1cccc(C#CC#C[C@H]2O[C@@H]2CO)o1`, the GI50 in the experiment with A549 NSCLC is 1.77 µM; in the experiment on CAKI-1 renal it was 0.189 µM; in the experiment on HCC-2998 colon, 0.788 µM; in the experiment on NCI-H226 lung it was 0.309 µM; in the experiment on OVCAR-3 ovarian, 0.286 µM; in the experiment on SF-539 CNS it was 1.07 µM. The GI50 with SK-MEL-28 melanoma was 0.37 µM; in the experiment on SK-OV-3 ovarian, 2.66 µM; with SNB-75 CNS, 1.89 µM; in the experiment on SW-620 colon, 0.238 µM. Further, the TGI in the experiment on A549 NSCLC amounted to 3.64 µM; in the experiment with CAKI-1 renal, 0.359 µM; in the experiment with HCC-2998 colon, 2.19 µM; with NCI-H226 lung, 1.11 µM; in the experiment on OVCAR-3 ovarian, 0.689 µM; with SF-539 CNS it was 2.84 µM. In addition, the TGI with SK-MEL-28 melanoma worked out at 1.71 µM; with SK-OV-3 ovarian it was 7.18 µM; in the experiment with SNB-75 CNS it was 3.52 µM; with SW-620 colon, 0.596 µM.
